Test results: the OligoGym collection
Oligonucleotides are given in HELM: sugar(base)linkage, 5' to 3'; d 2'-deoxyribose, r ribose, m 2'-O-methylribose, p phosphate. ss, as = sense and antisense strand

target: TMEM63B; experiment: reporter assay of Huesken 2005; details: siRNA
Note: test concentration or dose not given here.

Going from “RNA1{r(U)p.r(C)p.r(A)p.r(G)p.r(A)p.r(G)p.r(G)p.r(U)p.r(G)p.r(G)p.r(A)p.r(C)p.r(G)p.r(G)p.r(G)p.r(G)p.r(A)p.r(U)p.r(G)p.d(T)p.d(T)}|RNA2{r(C)p.r(A)p.r(U)p.r(C)p.r(C)p.r(C)p.r(C)p.r(G)p.r(U)p.r(C)p.r(C)p.r(A)p.r(C)p.r(C)p.r(U)p.r(C)p.r(U)p.r(G)p.r(A)p.d(G)p.d(T)}$$$RNA1{StrandType:ss}|RNA2{StrandType:as}$” to “RNA1{r(U)p.r(C)p.r(A)p.r(U)p.r(C)p.r(A)p.r(U)p.r(C)p.r(A)p.r(C)p.r(C)p.r(A)p.r(C)p.r(C)p.r(A)p.r(U)p.r(G)p.r(G)p.r(A)p.d(T)p.d(T)}|RNA2{r(U)p.r(C)p.r(C)p.r(A)p.r(U)p.r(G)p.r(G)p.r(U)p.r(G)p.r(G)p.r(U)p.r(G)p.r(A)p.r(U)p.r(G)p.r(A)p.r(U)p.r(G)p.r(A)p.d(T)p.d(G)}$$$RNA1{StrandType:ss}|RNA2{StrandType:as}$”, the normalised inhibition (eCFP-eYFP dual reporter) rises from 29.5% to 79.2%.

Going from “RNA1{r(U)p.r(C)p.r(A)p.r(U)p.r(G)p.r(A)p.r(C)p.r(C)p.r(U)p.r(A)p.r(C)p.r(A)p.r(G)p.r(U)p.r(A)p.r(U)p.r(C)p.r(A)p.r(C)p.d(T)p.d(T)}|RNA2{r(G)p.r(U)p.r(G)p.r(A)p.r(U)p.r(A)p.r(C)p.r(U)p.r(G)p.r(U)p.r(A)p.r(G)p.r(G)p.r(U)p.r(C)p.r(A)p.r(U)p.r(G)p.r(A)p.d(C)p.d(C)}$$$RNA1{StrandType:ss}|RNA2{StrandType:as}$” to “RNA1{r(U)p.r(C)p.r(C)p.r(A)p.r(U)p.r(C)p.r(C)p.r(G)p.r(A)p.r(G)p.r(G)p.r(C)p.r(U)p.r(U)p.r(C)p.r(A)p.r(U)p.r(C)p.r(U)p.d(T)p.d(T)}|RNA2{r(A)p.r(G)p.r(A)p.r(U)p.r(G)p.r(A)p.r(A)p.r(G)p.r(C)p.r(C)p.r(U)p.r(C)p.r(G)p.r(G)p.r(A)p.r(U)p.r(G)p.r(G)p.r(A)p.d(G)p.d(A)}$$$RNA1{StrandType:ss}|RNA2{StrandType:as}$”, the normalised inhibition (eCFP-eYFP dual reporter) rises from 60.2% to 65.3%.

First: RNA1{r(U)p.r(C)p.r(C)p.r(G)p.r(A)p.r(G)p.r(G)p.r(C)p.r(U)p.r(U)p.r(C)p.r(A)p.r(U)p.r(C)p.r(U)p.r(G)p.r(G)p.r(U)p.r(G)p.d(T)p.d(T)}|RNA2{r(C)p.r(A)p.r(C)p.r(C)p.r(A)p.r(G)p.r(A)p.r(U)p.r(G)p.r(A)p.r(A)p.r(G)p.r(C)p.r(C)p.r(U)p.r(C)p.r(G)p.r(G)p.r(A)p.d(T)p.d(G)}$$$RNA1{StrandType:ss}|RNA2{StrandType:as}$
Second: RNA1{r(U)p.r(C)p.r(C)p.r(U)p.r(A)p.r(G)p.r(C)p.r(U)p.r(C)p.r(C)p.r(C)p.r(A)p.r(C)p.r(G)p.r(U)p.r(C)p.r(U)p.r(A)p.r(U)p.d(T)p.d(T)}|RNA2{r(A)p.r(U)p.r(A)p.r(G)p.r(A)p.r(C)p.r(G)p.r(U)p.r(G)p.r(G)p.r(G)p.r(A)p.r(G)p.r(C)p.r(U)p.r(A)p.r(G)p.r(G)p.r(A)p.d(A)p.d(C)}$$$RNA1{StrandType:ss}|RNA2{StrandType:as}$
The normalised inhibition (eCFP-eYFP dual reporter) of the first is lower: 29.2% for the first, 79.7% for the second.

First: RNA1{r(U)p.r(C)p.r(C)p.r(U)p.r(G)p.r(G)p.r(G)p.r(A)p.r(G)p.r(C)p.r(U)p.r(C)p.r(A)p.r(G)p.r(G)p.r(G)p.r(G)p.r(A)p.r(U)p.d(T)p.d(T)}|RNA2{r(A)p.r(U)p.r(C)p.r(C)p.r(C)p.r(C)p.r(U)p.r(G)p.r(A)p.r(G)p.r(C)p.r(U)p.r(C)p.r(C)p.r(C)p.r(A)p.r(G)p.r(G)p.r(A)p.d(G)p.d(C)}$$$RNA1{StrandType:ss}|RNA2{StrandType:as}$
Second: RNA1{r(U)p.r(C)p.r(G)p.r(C)p.r(C)p.r(U)p.r(A)p.r(A)p.r(U)p.r(G)p.r(U)p.r(U)p.r(C)p.r(C)p.r(U)p.r(C)p.r(G)p.r(A)p.r(U)p.d(T)p.d(T)}|RNA2{r(A)p.r(U)p.r(C)p.r(G)p.r(A)p.r(G)p.r(G)p.r(A)p.r(A)p.r(C)p.r(A)p.r(U)p.r(U)p.r(A)p.r(G)p.r(G)p.r(C)p.r(G)p.r(A)p.d(G)p.d(C)}$$$RNA1{StrandType:ss}|RNA2{StrandType:as}$
The normalised inhibition (eCFP-eYFP dual reporter) of the first is lower: 52% for the first, 77.9% for the second.

First: RNA1{r(U)p.r(C)p.r(G)p.r(U)p.r(C)p.r(C)p.r(U)p.r(C)p.r(U)p.r(U)p.r(C)p.r(A)p.r(U)p.r(C)p.r(C)p.r(U)p.r(C)p.r(C)p.r(U)p.d(T)p.d(T)}|RNA2{r(A)p.r(G)p.r(G)p.r(A)p.r(G)p.r(G)p.r(A)p.r(U)p.r(G)p.r(A)p.r(A)p.r(G)p.r(A)p.r(G)p.r(G)p.r(A)p.r(C)p.r(G)p.r(A)p.d(C)p.d(A)}$$$RNA1{StrandType:ss}|RNA2{StrandType:as}$
Second: RNA1{r(U)p.r(C)p.r(U)p.r(G)p.r(G)p.r(G)p.r(G)p.r(A)p.r(G)p.r(A)p.r(A)p.r(C)p.r(A)p.r(G)p.r(G)p.r(A)p.r(C)p.r(A)p.r(A)p.d(T)p.d(T)}|RNA2{r(U)p.r(U)p.r(G)p.r(U)p.r(C)p.r(C)p.r(U)p.r(G)p.r(U)p.r(U)p.r(C)p.r(U)p.r(C)p.r(C)p.r(C)p.r(C)p.r(A)p.r(G)p.r(A)p.d(G)p.d(C)}$$$RNA1{StrandType:ss}|RNA2{StrandType:as}$
The normalised inhibition (eCFP-eYFP dual reporter) of the first is lower: 55.8% for the first, 68% for the second.

Compared with “RNA1{r(U)p.r(C)p.r(U)p.r(G)p.r(U)p.r(C)p.r(U)p.r(C)p.r(U)p.r(G)p.r(C)p.r(C)p.r(A)p.r(C)p.r(G)p.r(U)p.r(C)p.r(U)p.r(G)p.d(T)p.d(T)}|RNA2{r(C)p.r(A)p.r(G)p.r(A)p.r(C)p.r(G)p.r(U)p.r(G)p.r(G)p.r(C)p.r(A)p.r(G)p.r(A)p.r(G)p.r(A)p.r(C)p.r(A)p.r(G)p.r(A)p.d(T)p.d(G)}$$$RNA1{StrandType:ss}|RNA2{StrandType:as}$”, “RNA1{r(U)p.r(C)p.r(U)p.r(U)p.r(C)p.r(A)p.r(U)p.r(C)p.r(C)p.r(U)p.r(C)p.r(C)p.r(U)p.r(C)p.r(U)p.r(U)p.r(C)p.r(U)p.r(U)p.d(T)p.d(T)}|RNA2{r(A)p.r(A)p.r(G)p.r(A)p.r(A)p.r(G)p.r(A)p.r(G)p.r(G)p.r(A)p.r(G)p.r(G)p.r(A)p.r(U)p.r(G)p.r(A)p.r(A)p.r(G)p.r(A)p.d(G)p.d(G)}$$$RNA1{StrandType:ss}|RNA2{StrandType:as}$” is lower in normalised inhibition (eCFP-eYFP dual reporter): 68.3% for the first, 58.4% for the second.

Compared with “RNA1{r(U)p.r(G)p.r(A)p.r(A)p.r(U)p.r(G)p.r(A)p.r(G)p.r(A)p.r(A)p.r(G)p.r(C)p.r(C)p.r(U)p.r(C)p.r(U)p.r(U)p.r(G)p.r(G)p.d(T)p.d(T)}|RNA2{r(C)p.r(C)p.r(A)p.r(A)p.r(G)p.r(A)p.r(G)p.r(G)p.r(C)p.r(U)p.r(U)p.r(C)p.r(U)p.r(C)p.r(A)p.r(U)p.r(U)p.r(C)p.r(A)p.d(C)p.d(C)}$$$RNA1{StrandType:ss}|RNA2{StrandType:as}$”, “RNA1{r(U)p.r(G)p.r(A)p.r(C)p.r(C)p.r(A)p.r(A)p.r(A)p.r(G)p.r(G)p.r(G)p.r(A)p.r(C)p.r(A)p.r(A)p.r(U)p.r(G)p.r(G)p.r(U)p.d(T)p.d(T)}|RNA2{r(A)p.r(C)p.r(C)p.r(A)p.r(U)p.r(U)p.r(G)p.r(U)p.r(C)p.r(C)p.r(C)p.r(U)p.r(U)p.r(U)p.r(G)p.r(G)p.r(U)p.r(C)p.r(A)p.d(A)p.d(A)}$$$RNA1{StrandType:ss}|RNA2{StrandType:as}$” is higher in normalised inhibition (eCFP-eYFP dual reporter): 39.5% for the first, 70.9% for the second.

Going from “RNA1{r(U)p.r(G)p.r(C)p.r(A)p.r(C)p.r(A)p.r(A)p.r(G)p.r(U)p.r(G)p.r(C)p.r(U)p.r(A)p.r(C)p.r(A)p.r(C)p.r(U)p.r(U)p.r(U)p.d(T)p.d(T)}|RNA2{r(A)p.r(A)p.r(A)p.r(G)p.r(U)p.r(G)p.r(U)p.r(A)p.r(G)p.r(C)p.r(A)p.r(C)p.r(U)p.r(U)p.r(G)p.r(U)p.r(G)p.r(C)p.r(A)p.d(T)p.d(G)}$$$RNA1{StrandType:ss}|RNA2{StrandType:as}$” to “RNA1{r(U)p.r(G)p.r(C)p.r(A)p.r(G)p.r(C)p.r(G)p.r(A)p.r(G)p.r(U)p.r(C)p.r(C)p.r(C)p.r(U)p.r(G)p.r(C)p.r(A)p.r(C)p.r(A)p.d(T)p.d(T)}|RNA2{r(U)p.r(G)p.r(U)p.r(G)p.r(C)p.r(A)p.r(G)p.r(G)p.r(G)p.r(A)p.r(C)p.r(U)p.r(C)p.r(G)p.r(C)p.r(U)p.r(G)p.r(C)p.r(A)p.d(G)p.d(G)}$$$RNA1{StrandType:ss}|RNA2{StrandType:as}$”, the normalised inhibition (eCFP-eYFP dual reporter) falls from 99.1% to 25.9%.

Going from “RNA1{r(U)p.r(G)p.r(C)p.r(C)p.r(A)p.r(C)p.r(C)p.r(C)p.r(G)p.r(A)p.r(C)p.r(G)p.r(C)p.r(C)p.r(C)p.r(U)p.r(C)p.r(A)p.r(C)p.d(T)p.d(T)}|RNA2{r(G)p.r(U)p.r(G)p.r(A)p.r(G)p.r(G)p.r(G)p.r(C)p.r(G)p.r(U)p.r(C)p.r(G)p.r(G)p.r(G)p.r(U)p.r(G)p.r(G)p.r(C)p.r(A)p.d(T)p.d(C)}$$$RNA1{StrandType:ss}|RNA2{StrandType:as}$” to “RNA1{r(U)p.r(G)p.r(C)p.r(C)p.r(G)p.r(U)p.r(G)p.r(G)p.r(G)p.r(G)p.r(A)p.r(G)p.r(C)p.r(C)p.r(A)p.r(C)p.r(G)p.r(C)p.r(C)p.d(T)p.d(T)}|RNA2{r(G)p.r(G)p.r(C)p.r(G)p.r(U)p.r(G)p.r(G)p.r(C)p.r(U)p.r(C)p.r(C)p.r(C)p.r(C)p.r(A)p.r(C)p.r(G)p.r(G)p.r(C)p.r(A)p.d(G)p.d(G)}$$$RNA1{StrandType:ss}|RNA2{StrandType:as}$”, the normalised inhibition (eCFP-eYFP dual reporter) rises from 12.7% to 62.7%.

Going from “RNA1{r(U)p.r(G)p.r(C)p.r(U)p.r(G)p.r(C)p.r(C)p.r(U)p.r(G)p.r(U)p.r(C)p.r(A)p.r(A)p.r(C)p.r(U)p.r(U)p.r(C)p.r(U)p.r(C)p.d(T)p.d(T)}|RNA2{r(G)p.r(A)p.r(G)p.r(A)p.r(A)p.r(G)p.r(U)p.r(U)p.r(G)p.r(A)p.r(C)p.r(A)p.r(G)p.r(G)p.r(C)p.r(A)p.r(G)p.r(C)p.r(A)p.d(C)p.d(G)}$$$RNA1{StrandType:ss}|RNA2{StrandType:as}$” to “RNA1{r(U)p.r(G)p.r(G)p.r(G)p.r(A)p.r(G)p.r(A)p.r(A)p.r(C)p.r(C)p.r(A)p.r(C)p.r(C)p.r(A)p.r(U)p.r(U)p.r(G)p.r(C)p.r(C)p.d(T)p.d(T)}|RNA2{r(G)p.r(G)p.r(C)p.r(A)p.r(A)p.r(U)p.r(G)p.r(G)p.r(U)p.r(G)p.r(G)p.r(U)p.r(U)p.r(C)p.r(U)p.r(C)p.r(C)p.r(C)p.r(A)p.d(A)p.d(A)}$$$RNA1{StrandType:ss}|RNA2{StrandType:as}$”, the normalised inhibition (eCFP-eYFP dual reporter) falls from 60.5% to 43.8%.
